Test results: patent publication US5480983A, “Adenosine derivatives, preparation methods and pharmaceutical compositions containing them” (Laboratoires UPSA, priority 1992, dated 1996)

What was measured:
[1] = target: T1, rat central A1 adenosinergic receptors (Rattus norvegicus, UniProt P25099); assay: Binding to adenosine A1 receptors ([3H] PIA displacement); conditions: [3H] PIA 2.5 nM, n=3; for inhibition at 10 µM: 1E-5M, read-out: % displacement of the labeled ligand, A1, 1E-5M; for inhibition at 0.1 µM: 1E-7M, read-out: % displacement of the labeled ligand, A1, 1E-7M
T1 construct: After the animal has been sacrificed by decapitation, the brain is quickly removed and washed in cold isotonic solution; from tissue; host or cells: rat brain, membrane preparation from the two hemispheres
T1 sequence (P25099 1-326): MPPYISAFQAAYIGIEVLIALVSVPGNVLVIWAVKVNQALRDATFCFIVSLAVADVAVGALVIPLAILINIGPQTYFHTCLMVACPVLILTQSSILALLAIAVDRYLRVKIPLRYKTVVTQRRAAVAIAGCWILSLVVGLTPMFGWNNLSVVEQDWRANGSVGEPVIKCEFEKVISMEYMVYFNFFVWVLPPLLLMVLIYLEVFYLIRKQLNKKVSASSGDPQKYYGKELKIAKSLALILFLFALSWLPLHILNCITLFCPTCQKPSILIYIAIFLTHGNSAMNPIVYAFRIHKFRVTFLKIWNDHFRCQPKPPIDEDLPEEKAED
Method: (§1) The affinity of the products of the Examples for the rat central A1 and A2 adenosinergic receptors is determined by the competitive technique using a radioactive ligand specifically bound either to the A1 receptors ([^3 H] PIA) or to the A2 receptors ([^3 H] NECA).
After the animal has been sacrificed by decapitation, the brain is quickly removed and washed in cold isotonic solution. The two hemispheres are separated and weighed and each of them is introduced into a polyallomer tube containing 25 volumes of cold homogenization buffer. Homogenization is effected using an Ultra-Turrax for 30 seconds (3 times 10 seconds with 10-second intervals, 70% of the maximum speed). The ground material obtained is centrifuged at 1000 g (≈3000 rpm) for 10 minutes at 4° C.
The supernatant is centrifuged again at 48,000 g (≈20,000 rpm) for 20 minutes at 4° C.
When this step is complete, the residue is taken up with 4 volumes of homogenization buffer, resuspended using a Vortex and homogenized with the Ultra-Turrax. Adenosine deaminase is then added at a rate of 1 U/ml, i.e. 1 μl/ml of homogenate, using a 10 μl Hamilton syringe.
After this treatment, the homogenate is shaken for 30 minutes at room temperature and then centrifuged at […] (≈20,000 rpm) for 30 minutes at 4° C.
The residue obtained is resuspended in 10 volumes of homogenization buffer and passed through the Ultra-Turrax for 20 seconds (2 times 10 seconds with a 10-second interval, 70% of the maximum speed).
The homogenate prepared in this way is used for the competitive tests. It is kept at 4° C. if the studies take place the same day, or stored at -20° C. in the form of 10 ml aliquots.
After the homogenate has been thawed at room temperature, it is passed through a Potter mill (6 manual to-and-fro movements, speed 6), diluted to 2/5 in incubation buffer and placed in a water bath thermostated at 4° C., with shaking, until the end of the experiment.
(§2) 50 μl of [^3 H] PIA at 100 nM, i.e. 2.5 nM in the final reaction medium allowing for the 1/40 dilution, and 50 μl of the product of the Example at the concentrations considered (10^-1 M and 10^-7 M) are introduced into the reaction tubes. The reaction is initiated by the addition of 1 ml of homogenate and 900 μl of incubation buffer. The procedure is identical for all the beta-blockers studied.
(§3) The tubes are shaken and incubated in a water bath at 20° C. for 30 minutes. When the incubation is complete, the contents of the tubes are filtered on Whatman GF/B paper. Each tube is washed twice with 2 ml of rinsing buffer and then the filters themselves are rinsed with 3 ml of this same buffer.
The filters are then transferred to counting flasks and 10 ml of liquid scintillator (Ready Solv HP/b, Beckman) are added.
After they have been shaken, the flasks are stored in a refrigerator overnight and the radio-activity is then determined in a liquid scintillation counter.
(§4) 3 tests are performed for each concentration studied. The non-specific binding of the [^3 H] PIA is assessed by measuring the amount of radioactivity retained on the filter in the presence of 10^-5 M phenylisopropyladenosine (PIA). The value of the non-specific binding is systematically subtracted from that of the tests.
(§5) The results are expressed for each product in the form of the percentage displacement (n=3) of the labeled radioligand at concentrations of 10^-5 M and 10^-7 M.

[2] = target: T2, rat central A2 adenosinergic receptors (Rattus norvegicus, UniProt P30543); assay: Binding to adenosine A2 receptors ([3H] NECA displacement); conditions: [3H] NECA 4 nM, n=3; for inhibition at 10 µM: 1E-5M, read-out: % displacement of the labeled ligand, A2, 1E-5M; for inhibition at 0.1 µM: 1E-7M, read-out: % displacement of the labeled ligand, A2, 1E-7M
T2 construct: the striatum is removed from each of them (Bruns et al., 1986); from tissue; host or cells: rat striatum, homogenate (membrane preparation)
Method: as §1
Method of studying the A2 receptors Membrane preparation
After decapitation of the animal, the brain is quickly removed and washed in cold isotonic solution. The two hemispheres are separated and the striatum is removed from each of them (Bruns et al., 1986), weighed and introduced into a polyallomer tube containing 10 volumes of cold homogenization buffer. The tissue is homogenized with an Ultra-Turrax for 30 seconds (3 times 10 seconds with 10-second intervals, 70% of the maximum speed). The ground material is centrifuged at 50,000 g (≈20,500 rpm) for 10 minutes at 4° C.
The residue obtained is resuspended in 10 volumes of homogenization buffer using a Vortex and homogenized with the Ultra-Turrax (5 to 10 seconds, 70% of the maximum speed).
Adenosine deaminase is then added at a rate of 1 U/ml, i.e. 1 μl/ml of homogenate, using a 10 μl Hamilton syringe. The homogenate treated in this way is shaken at room temperature for 30 minutes.
When the incubation is complete, the homogenate is centrifuged at 50,000 g (≈20,500 rpm) for 10 minutes at 4° C.
The residue is taken up with 5 volumes of cold homogenization buffer and passed through the Ultra-Turrax (2 times 10 seconds with a 10-second interval, 70% of the maximum speed) and the homogenate prepared in this way is finally frozen at -70° C. Competitive test
After the homogenate has been thawed at room temperature, 15 volumes of incubation buffer are added. The homogenate is shaken on a Vortex, passed through a Potter mill (6 to-and-fro movements, speed 6), diluted to 1/10 in incubation buffer and finally placed in a water bath thermostated at 4° C., with shaking, until the end of the experiment.
as §2, with “NECA” for “PIA”, “160” for “100”, “4” for “2.5”, “(10^-5” for “(10^-1”, “similar” for “identical”, “compounds” for “beta-blockers”
as §3, with “25°” for “20°”, “60” for “30”, “buffer before being transferred to counting flasks.” for “buffer.”
10 ml of liquid scintillator (Ready Solv HP/b, Beckman) are added to all the flasks. These are shaken and stored in a refrigerator overnight. The radioactivity is determined in a liquid scintillation counter.
as §4, with “NECA” for “PIA”, “determined” for “assessed”, “5 μM N-ethylcarboxamidoadenosine (NECA).” for “10^-5 M phenylisopropyladenosine (PIA).”
as §5

[3] = Phenylbenzoquinone test (analgesic activity); type: in vivo; conditions: Mus musculus, 1 h; mice; oral, one hour before phenylbenzoquinone i.p.; 5 minutes observation; read-out: Phenylbenzoquinone test 50% inhibitory dose
Method: 2. Phenylbenzoquinone test
The intraperitoneal injection of phenylbenzoquinone causes twisting and stretching movements in mice. Analgesics prevent or reduce this syndrome, which can be considered as the exteriorization of diffuse abdominal pain.
A 0.02% solution of phenylbenzoquinone in water is administered in a volume of 1 ml/100 g.
The products of the Examples are administered orally one hour before the injection of phenylbenzoquinone.
The stretching and twisting movements are counted for each mouse over an observation period of 5 minutes.

[4] = system: platelet aggregation; conditions: as described in Journal of Medicinal Chemistry; cited from earlier work
[5] = as specified in Biochemical Pharmacology; cited from earlier work

T2 sequence (P30543 whole entry): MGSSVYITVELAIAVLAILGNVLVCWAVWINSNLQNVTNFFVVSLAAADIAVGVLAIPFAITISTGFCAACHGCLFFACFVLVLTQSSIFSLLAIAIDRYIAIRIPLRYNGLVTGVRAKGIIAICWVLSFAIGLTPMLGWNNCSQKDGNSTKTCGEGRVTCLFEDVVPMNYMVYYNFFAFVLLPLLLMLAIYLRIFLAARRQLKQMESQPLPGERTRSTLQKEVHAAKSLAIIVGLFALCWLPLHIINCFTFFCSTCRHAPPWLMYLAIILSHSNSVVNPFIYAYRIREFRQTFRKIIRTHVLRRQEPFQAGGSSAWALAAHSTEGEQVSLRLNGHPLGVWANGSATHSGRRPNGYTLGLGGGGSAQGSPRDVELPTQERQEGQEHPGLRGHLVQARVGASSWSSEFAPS

Cc1ccc(C)c(Cn2cc(CCNc3ncnc4c3ncn4[C@@H]3O[C@H](C(=O)NC4CC4)[C@@H](O)[C@H]3O)c3ccccc32)c1 [Example 68, β-D-Ribofuranuronamido-N-cyclopropyl-1-deoxy-1-[6-[[2-[1-(2,5-dimethylbenzyl)indol-3-yl]ethyl]amino]-9H-purin-9-yl]]
inhibition at 10 µM [1]: 93%
inhibition at 0.1 µM [1]: 26%
inhibition at 10 µM [2]: 84%
inhibition at 0.1 µM [2]: 9%
ED50 [3]: 2.4 mg/kg

O=C(NC1CC1)[C@H]1O[C@@H](n2cnc3c(NCCc4cn(CCN5CCCCC5)c5ccccc45)ncnc32)[C@H](O)[C@@H]1O [Example 71 (citrate), β-D-ribofuranuronamido-N-cyclopropyl-1-deoxy-1-[6-[[2-[1-(2-N-piperidinoethyl)indol-3-yl]ethyl]amino]-9H-purin-9-yl]citrate]
inhibition at 10 µM [1]: 99%
inhibition at 0.1 µM [1]: 91%
inhibition at 10 µM [2]: 96%
inhibition at 0.1 µM [2]: 44%
ED50 [3]: 7.3 mg/kg

Cc1ccc(C)c(Cn2cc(CCNc3ncnc4c3ncn4[C@@H]3O[C@H](C(=O)NC4CC4)[C@@H](O)[C@H]3O)c3cc(C)ccc32)c1 [Example 85, β-D-Ribofuranuronamido-N-cyclopropyl-1-deoxy-1-[6-[[2-[1-(2,5-dimethylbenzyl)-5-methylindol-3-yl]ethyl]amino]-9H-purin-9-yl]]
inhibition at 10 µM [1]: 100%
inhibition at 0.1 µM [1]: 50%
inhibition at 10 µM [2]: 71%
inhibition at 0.1 µM [2]: 3%
ED50 [3]: 0.9 mg/kg

COc1ccc2c(c1)c(CCNc1ncnc3c1ncn3[C@@H]1O[C@H](C(=O)NC3CC3)[C@@H](O)[C@H]1O)cn2Cc1cc(C)ccc1C [Example 86, β-D-Ribofuranuronamido-N-cyclopropyl-1-deoxy-1-[6-[[2-[1-(2,5-dimethylbenzyl)-5-methoxyindol-3-yl]ethyl]amino]-9H-purin-9-yl]]
inhibition at 10 µM [1]: 100%
inhibition at 0.1 µM [1]: 16%
inhibition at 10 µM [2]: 91%
inhibition at 0.1 µM [2]: 17%
ED50 [3]: ~60 mg/kg

Cc1ccc(C)c(Cn2c(C)c(CCNc3ncnc4c3ncn4[C@@H]3O[C@H](C(=O)NC4CC4)[C@@H](O)[C@H]3O)c3ccccc32)c1 [Example 87, β-D-Ribofuranuronamido-N-cyclopropyl-1-deoxy-1-[6-[[2-[1-(2,5-dimethylbenzyl)-2-methylindol-3-yl]ethyl]amino]-9H-purin-9-yl]]
inhibition at 10 µM [1]: 56%
inhibition at 0.1 µM [1]: 5%
inhibition at 10 µM [2]: 60%
inhibition at 0.1 µM [2]: 7%
ED50 [3]: 1.2 mg/kg

Cc1ccc(C)c(Cn2cc(CC(C)Nc3ncnc4c3ncn4[C@@H]3O[C@H](C(=O)NC4CC4)[C@@H](O)[C@H]3O)c3ccccc32)c1 (stereo partly drawn) [Example 92, β-D-Ribofuranuronamido-N-cyclopropyl-1-deoxy-1-[6-[[1-[1-(2,5-dimethylbenzyl)indol-3-yl]propan-2-yl]amino]-9H-purin-9-yl]]
inhibition at 10 µM [1]: 96%
inhibition at 0.1 µM [1]: 21%
inhibition at 10 µM [2]: 84%
inhibition at 0.1 µM [2]: 9%
ED50 [3]: 3.6 mg/kg

CC(Cc1cn(C2CCCC2)c2ccccc12)Nc1ncnc2c1ncn2[C@@H]1O[C@H](C(=O)NC2CC2)[C@@H](O)[C@H]1O (stereo partly drawn) [Example 93, β-D-Ribofuranuronamido-N-cyclopropyl-1-deoxy-1-[6-[[1-[1-cyclopentylindol-3-yl]-propan-2-yl]amino]-9H-purin-9-yl]]
inhibition at 10 µM [1]: 96%
inhibition at 0.1 µM [1]: 45%
inhibition at 10 µM [2]: 85%
inhibition at 0.1 µM [2]: 22%
ED50 [3]: 2 mg/kg

OC[C@H]1O[C@@H](n2cnc3c(NCCc4c[nH]c5ccccc45)ncnc32)[C@H](O)[C@@H]1O [derivative A, N-6-[2-(indol-3-yl)ethyl]adenosine]
platelet aggregation inhibiting activity [4]: platelet aggregation inhibiting activity

COc1ccc2[nH]cc(CCNc3ncnc4c3ncn4[C@@H]3O[C@H](CO)[C@@H](O)[C@H]3O)c2c1 [derivative B]
antilipolytic activity [5]: antilipolytic activity
